The results in this text go back to patent US20130012465A1 (Boehringer Ingelheim International GmbH, priority 2009, published 2013).

As usually defined, the EC50 is the concentration that produces a half-maximal response.

The test system of one series is HCC 1937. Briefly: triple negative breast cell panel, EC50 2D/3D. The class given is cell-based. The following applies: Homo sapiens, HCC1937.
The next series deals with MDA-MB-231. The series is described as follows: triple negative breast cell panel, EC50 2D/3D. The following applies: Homo sapiens. The class given is cell-based.
The next series deals with MDA-MB-468. Briefly: triple negative breast cell panel, EC50 2D/3D. The class given is cell-based. The following applies: Homo sapiens; MDA-MB-468, 3D.
In another series the test system is HCC 1143. Briefly: triple negative breast cell panel, EC50 2D/3D. Type of series: cell-based. Particulars: Homo sapiens, HCC1143.
In another series the test system is BT 549. The series is described as follows: triple negative breast cell panel, EC50 2D/3D. Type of series: cell-based. Particulars: Homo sapiens.
Another series relates to SUM 149PT. The series is described as follows: triple negative breast cell panel, EC50 2D/3D. The class given is cell-based. The following applies: Homo sapiens, SUM149PT.
The subject of a further series is BT20. The series is described as follows: triple negative breast cell panel, EC50 2D/3D. The class given is cell-based. Particulars: Homo sapiens, BT-20.
Series [1] concerns HER2-negative, HR-positive mBC. The series is described as follows: Phase II clinical study, Cohort B. The class given is in vivo, human. The protocol:
(§1) A Phase II, open-label, multicenter trial was conducted in Belgium and Germany. Two Cohorts of patients were included: • Cohort A: Patients with triple negative mBC • Cohort B: Patients with HER2-negative, HR-positive mBC. • Primary endpoint for Cohort A and B initially was objective response as determined by response evaluation criteria in solid tumours (RECIST) criteria, as described by P. Therasse et al., J Natl Cancer Inst 2000, 92, 205-216. For Cohort A this was modified by amendment to clinical benefit (CB), i.e. complete response (CR), partial response (PR) and stable disease (SD) for at least 4 courses. • Secondary endpoints were time to progression, progression-free survival (PFS), overall survival (OS), time to objective response, duration of objective response, safety and pharmacokintics (PK). Clinical benefit (CR, PR, SD) was a secondary endpoint for Cohort B. • A total of 80 patients was planned to be enrolled into the trial: 80, i.e. 40 patients per cohort. […] Additional predose plasma samples were taken on Day 15 of Course 1, on Day 1 of Course 2 and on Day 1 of all subsequent courses (Course 3 onwards).
(§2) Dose reduction to 40 mg/day and 30 mg/day was an option for patients experiencing certain drug-related AEs.
• Confirmed diagnosis of Stage IV HER2-negative metastatic breast cancer (HER22+ and fluorescence in situ hybridization-negative or HER21+ or negative) • Progression following no more than two lines of chemotherapy including adjuvant, not including hormone treatments for Cohort B • Age ≧18 years • Life expectancy of at least 6 months • Written informed consent • Eastern Cooperative Oncology Group (ECOG) performance score 0-2 • Measurable disease according to RECIST criteria • Availability of tumour samples (fresh or paraffin material) for EGFR-testing. • No prior treatment with EGFR/HER1 or HER2 inhibiting agent • Adequate liver, kidney and bone marrow function • No concomitant treatment with other investigational drugs • No other anti-cancer-therapy within four weeks prior to the first treatment with the trial drug. • Concurrent treatment with biphosphonates is allowed.
• ER-positive and/or PgR-positive patients: ER-status and PgR-status must be assessed by IHC and Allred (Harvey J M et al., J Clin Oncol 1999, 17(5), 1474-1481).

For a further series, the system named is HCC 70. Briefly: triple negative breast cell panel, EC50 2D/3D. The class given is cell-based. The following applies: Homo sapiens, HCC70.
The test system of the next series is triple negative mBC. Particulars: Cohort A. Here is the method: as §1, §2
• HR-negative patients: estrogen receptor (ER) status and progesterone receptor (PgR) status must be assessed by immunohistochemistry (IHC) and Allred (Harvey J M et al., J Clin Oncol 1999, 17(5), 1474-1481).

The test system of series [2] is HER2-negative metastatic breast cancer. Briefly: Phase II clinical study, all treated patients (safety, PK, exposure). The class given is in vivo, human. The protocol: as §1, with “Two Cohorts of patients were included: • Cohort A: Patients with triple negative mBC • Cohort B: Patients with HER2-negative, HR-positive mBC. • Primary endpoint for Cohort A and B initially was objective response as determined by response evaluation criteria in solid tumours (RECIST) criteria, as described by P. Therasse et al., J Natl Cancer Inst 2000, 92, 205-216.” left out
as §2

Another series relates to HCC 1806. The series is described as follows: triple negative breast cell panel, EC50 2D/3D. The class given is cell-based. Particulars: Homo sapiens, HCC1806.
A further series deals with CAMA-1. The series is described as follows: triple negative breast cell panel, EC50 2D/3D. Type of series: cell-based. Particulars: Homo sapiens.
The next series relates to SUM149 Xenografts. The series is described as follows: triple negative, EGFR positive SUM149 Xenografts in mice. Type of series: in vivo.
[3] abbreviates: HCC 1937, 2D, read-out: EC50 [nM] 2D.
The mark [4] stands for this setting: HCC 1937, 3D, read-out: EC50 [nM] 3D.
Where [5] appears, read: MDA-MB-231, 2D, read-out: EC50 [nM] 2D.
[6] abbreviates: MDA-MB-231, 3D, read-out: EC50 [nM] 3D.
Setting [7] is: HCC 1143, 2D, read-out: EC50 [nM] 2D.
Where [8] appears, read: HCC 1143, 3D, read-out: EC50 [nM] 3D.
[9] abbreviates: BT 549, 2D, read-out: EC50 [nM] 2D.
Setting [10] is: BT20, 2D, read-out: EC50 [nM] 2D.
[11] abbreviates: BT20, 3D, read-out: EC50 [nM] 3D.
[12] abbreviates: HCC 70, 2D, read-out: EC50 [nM] 2D.
[13] abbreviates: HCC 70, 3D, read-out: EC50 [nM] 3D.
[14] abbreviates: three patients with clinical benefit for >4 months.
The mark [15] stands for this setting: 50 treated patients, 50 mg/day oral.
Where [16] appears, read: HCC 1806, 2D, read-out: EC50 [nM] 2D.
The mark [17] stands for this setting: HCC 1806, 3D, read-out: EC50 [nM] 3D.
Setting [18] is: CAMA-1, 2D, read-out: EC50 [nM] 2D.
[19] abbreviates: CAMA-1, 3D, read-out: EC50 [nM] 3D.

Like-named read-outs stand apart in the source and are kept apart here.

In the case of `CN(C)C/C=C/C(=O)Nc1cc2c(Nc3ccc(F)c(Cl)c3)ncnc2cc1O[C@H]1CCOC1` [BIBW 2992, 4-[(3-chloro-4-fluorophenyl)amino]-6-{[4-(N,N-dimethylamino)-1-oxo-2-buten-1-yl]amino}-7-((S)-tetrahydrofuran-3-yloxy)-quinazo line], the concentration giving a half-maximal response (EC50) was more than 4000 nM in the series on HCC 1937 (setting [3]); more than 4000 nM in the series with HCC 1937 (setting [4]); more than 10000 nM in the series with MDA-MB-231 (setting [5]); 2150 nM with MDA-MB-231 (setting [6]); 1250 nM in the series on MDA-MB-468; more than 4000 nM with HCC 1143 (setting [7]). The concentration giving a half-maximal response (EC50) was more than 1000 nM in the series on HCC 1143 (setting [8]); 2020 nM in the series on BT 549 (setting [9]); 956 nM with BT 549 (BT 549, 3D, read-out: EC50 [nM] 3D); 17 nM in the series with SUM 149PT; more than 4000 nM in the series with BT20 (setting [10]); 23 nM with BT20 (setting [11]). Further, the concentration giving a half-maximal response (EC50) is 571 nM in the series with HCC 70 (setting [12]); more than 1000 nM with HCC 70 (setting [13]); more than 4000 nM in the series on HCC 1806 (setting [16]); 47 nM in the series on HCC 1806 (setting [17]); 234 nM in the series with CAMA-1 (setting [18]); 277 nM in the series with CAMA-1 (setting [19]). For the same molecule, the “patients discontinued due to disease progression” value in [1] is recorded as 12 patients; with triple negative mBC it was 19 patients; in [2] (all 50 treated patients), “Thirty-one”. Moreover, the results for the “objective response (OR), RECIST” value (in [1] (50 mg/day oral); with triple negative mBC (50 mg/day oral)) were “No OR” and “No objective response”, respectively. For the same molecule, in series [1] (50 mg/day oral), the “patients with SD for ≧4 cycles” value is given as 1 patient. The “patients with a best response of SD” value in series [1] (21 patients included, 50 mg/day oral) was 5 patients; in the series on triple negative mBC (29 patients included, 50 mg/day oral) it was “Seven”. In addition, the “patients remaining on treatment with SD for >4 cycles” value with triple negative mBC (50 mg/day oral) is given as “three”. Also, the “overall median PFS” value with triple negative mBC (29 patients) was 53 days. Besides, the “mean PFS” value in the series on triple negative mBC (setting [14]) came to 217 days. Further, the “median PFS” value in the series with triple negative mBC (setting [14]) is given as 184 days. Further, the “patients discontinued due to dose-reducing toxicities” value in series [2] (50 treated patients) stood at 15 patients. Also, the “patients discontinued due to other AEs” value in series [2] (50 treated patients) is “four”. The “patients discontinued treatment due to AEs” value in series [2] (setting [15]) is on record as “Nineteen”. Moreover, in [2] (setting [15]), the safety profile result is given as “safety profile similar to other EGFR TKIs”.

For `CCOc1cc2ncc(C#N)c(Nc3ccc(OCc4ccccn4)c(Cl)c3)c2cc1NC(=O)/C=C/CN(C)C` [HKI-272], the “T/C [%] Day 42” value in the series on SUM149 Xenografts (50 mg/kg/d (MTD)) was 36%.

For `C#Cc1cccc(Nc2ncnc3cc(OCCOC)c(OCCOC)cc23)c1` [erlotinib], the “T/C [%] Day 42” value with SUM149 Xenografts (75 mg/kg/d (MTD)) is 6%.

As to `CS(=O)(=O)CCNCc1ccc(-c2ccc3ncnc(Nc4ccc(OCc5cccc(F)c5)c(Cl)c4)c3c2)o1` [lapatinib, reference compound], the half-maximal effective concentration (EC50) is more than 4000 nM in the series on HCC 1937 (setting [3]); more than 4000 nM in the series on HCC 1937 (setting [4]); more than 10000 nM in the series on MDA-MB-231 (setting [5]); more than 4000 nM in the series with MDA-MB-231 (setting [6]); more than 1000 nM in the series on MDA-MB-468; more than 4000 nM in the series with HCC 1143 (setting [7]). In addition, the EC50 in the series on HCC 1143 (setting [8]) is more than 4000 nM; with BT 549 (setting [9]) it was more than 1000 nM; with SUM 149PT, 1360 nM; in the series with BT20 (setting [10]), more than 4000 nM; in the series on BT20 (setting [11]) it was 467 nM; in the series on HCC 70 (setting [12]), more than 1000 nM. In addition, the EC50 in the series on HCC 70 (setting [13]) was more than 1000 nM; with HCC 1806 (setting [16]), more than 4000 nM; in the series with HCC 1806 (setting [17]), more than 4000 nM; with CAMA-1 (setting [18]) it was more than 1000 nM; in the series on CAMA-1 (setting [19]), 3010 nM. Further, in the series on SUM149 Xenografts (2 × 100 mg/kg/d (MTD)), the “T/C [%] Day 42” value came to 25%.
